{"source": "ChEMBL document CHEMBL5528049", "about": "“Discovery of (4-Pyrazolyl)-2-aminopyrimidines as Potent and Selective Inhibitors of Cyclin-Dependent Kinase 2” (J Med Chem, 2024)", "key": {"[1]": {"experiment": "Solubility of compound in SGF by HPLC analysis"}, "[2]": {"experiment": "Intrinsic clearance in human liver microsomes at 1 uM measured upto 30 mins by LC/MS analysis", "assay_type": "ADME, Microsome", "settings": "read-out: CLH (converted)"}, "[3]": {"experiment": "Apparent permeability from apical to basolateral side in human Caco-2 cells at 50 uM incubated for 120 mins by LCMS analysis"}, "[4]": {"experiment": "Protein binding in human plasma assessed as free fraction incubated for 2 hrs by LC-MS/MS analysis", "assay_type": "ADME, cell-free"}, "[5]": {"experiment": "AUC in Sprague-Dawley rat at 3 mg/kg, po administered as cassette dose and measured upto 24 hrs by LC-MS/MS analysis", "assay_type": "ADME, organism-based", "settings": "in vivo"}, "[6]": {"experiment": "Cmax in Sprague-Dawley rat at 3 mg/kg, po administered as cassette dose and measured upto 24 hrs by LC-MS/MS analysis", "assay_type": "ADME, organism-based", "settings": "in vivo"}, "[7]": {"experiment": "Oral bioavailability in Sprague-Dawley rat at 3 mg/kg administered as cassette dose and measured upto 24 hrs by LC-MS/MS analysis", "assay_type": "ADME, organism-based", "settings": "in vivo"}, "[8]": {"experiment": "Hepatic blood flow in Sprague-Dawley rat at 0.5 mg/kg, iv administered as cassette dose and measured upto 24 hrs by LC-MS/MS analysis", "assay_type": "ADME, organism-based", "settings": "in vivo"}, "[9]": {"experiment": "Half-life in Sprague-Dawley rat at 0.5 mg/kg, iv administered as cassette dose and measured upto 24 hrs by LC-MS/MS analysis", "assay_type": "ADME, organism-based", "settings": "in vivo"}, "[10]": {"experiment": "Volume of distribution at steady state in Sprague-Dawley rat at 0.5 mg/kg, iv administered as cassette dose and measured upto 24 hrs by LC-MS/MS analysis", "assay_type": "ADME, organism-based", "settings": "in vivo, read-out: Vdss"}, "[11]": {"experiment": "AUC in cynomolgus monkey at 2 mg/kg, po administered as cassette dose and measured upto 24 hrs by LC-MS/MS analysis", "assay_type": "ADME, organism-based, Macaca fascicularis", "settings": "in vivo"}, "[12]": {"experiment": "Cmax in cynomolgus monkey at 2 mg/kg, po administered as cassette dose and measured upto 24 hrs by LC-MS/MS analysis", "assay_type": "ADME, organism-based, Macaca fascicularis", "settings": "in vivo"}, "[13]": {"experiment": "Oral bioavailability in cynomolgus monkey at 2 mg/kg administered as cassette dose and measured upto 24 hrs by LC-MS/MS analysis", "assay_type": "ADME, organism-based, Macaca fascicularis", "settings": "in vivo"}, "[14]": {"experiment": "Hepatic blood flow in cynomolgus monkey at 0.3 mg/kg, iv administered as cassette dose and measured upto 24 hrs by LC-MS/MS analysis", "assay_type": "ADME, organism-based, Macaca fascicularis", "settings": "in vivo"}, "[15]": {"experiment": "Half-life in cynomolgus monkey at 0.3 mg/kg, iv administered as cassette dose and measured upto 24 hrs by LC-MS/MS analysis", "assay_type": "ADME, organism-based, Macaca fascicularis", "settings": "in vivo"}, "[16]": {"experiment": "Volume of distribution at steady state in cynomolgus monkey at 0.3 mg/kg, iv administered as cassette dose and measured upto 24 hrs by LC-MS/MS analysis", "assay_type": "ADME, organism-based, Macaca fascicularis", "settings": "in vivo, read-out: Vdss"}, "[17]": {"experiment": "In vivo inhibition of CDK2 in athymic nude mouse assessed as reduction in retinoblastoma protein phosphorylation at 30 mg/kg, po administered once daily for 5 days and measured after 24 hrs relative to control", "assay_type": "functional", "settings": "144 h, time 6 day"}, "[18]": {"experiment": "Drug concentration in athymic nude mouse plasma at 30 mg/kg, po administered as […] for 5 days and measured after 24 hrs", "assay_type": "ADME, organism-based", "settings": "in vivo, 144 h, BLD = below limit of detection, time 6 day"}, "OVCAR-3": {"tested_on": "OVCAR-3", "experiment": "Antitumor activity against human OVCAR-3 cells xenografted in athymic nude mouse assessed as tumor growth inhibition at 30 mg/kg, po administered once daily for 28 days relative to control", "assay_type": "functional", "settings": "OVCAR-3, 672 h, time 28 day, read-out: TGI"}, "[19]": {"experiment": "Toxicity in athymic nude mouse xenografted with human OVCAR-3 cells assessed as animal death at 30 mg/kg, po administered once daily for 28 days", "assay_type": "organism-based", "settings": "in vivo, 672 h, time 28 day"}, "[20]": {"experiment": "Toxicity in athymic nude mouse xenografted with human OVCAR-3 cells assessed as adverse effect at 30 mg/kg, po administered once daily for 28 days", "assay_type": "organism-based", "settings": "in vivo, 672 h, time 28 day"}, "[21]": {"experiment": "Toxicity in athymic nude mouse xenografted with human OVCAR-3 cells assessed as body weight loss at 30 mg/kg, po administered once daily for 28 days", "assay_type": "organism-based", "settings": "in vivo, 672 h, time 28 day"}, "Cytochrome P450 2D6": {"target": "Cytochrome P450 2D6 (Homo sapiens, UniProt P10635)", "sequence (P10635 whole entry)": "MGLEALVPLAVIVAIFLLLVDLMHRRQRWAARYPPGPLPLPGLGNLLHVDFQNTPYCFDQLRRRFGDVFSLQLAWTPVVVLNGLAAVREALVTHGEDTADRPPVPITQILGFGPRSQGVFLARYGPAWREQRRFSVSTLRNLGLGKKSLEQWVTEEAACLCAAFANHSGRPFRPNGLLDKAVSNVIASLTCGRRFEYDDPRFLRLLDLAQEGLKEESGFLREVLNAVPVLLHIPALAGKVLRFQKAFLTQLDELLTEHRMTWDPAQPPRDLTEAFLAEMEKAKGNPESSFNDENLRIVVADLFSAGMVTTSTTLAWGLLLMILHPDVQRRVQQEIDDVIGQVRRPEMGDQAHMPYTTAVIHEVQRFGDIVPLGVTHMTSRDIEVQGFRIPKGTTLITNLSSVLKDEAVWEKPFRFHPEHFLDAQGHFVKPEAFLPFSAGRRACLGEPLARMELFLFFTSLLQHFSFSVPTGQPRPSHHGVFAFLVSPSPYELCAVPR", "experiment": "Inhibition of CYP2D6 in human liver microsomes using bufuralol as substrate in presence of NADPH by LC-MS/MS analysis", "assay_type": "ADME, Microsome"}, "Cytochrome P450 3A4": {"target": "Cytochrome P450 3A4 (Homo sapiens, UniProt P08684)", "sequence (P08684 whole entry)": "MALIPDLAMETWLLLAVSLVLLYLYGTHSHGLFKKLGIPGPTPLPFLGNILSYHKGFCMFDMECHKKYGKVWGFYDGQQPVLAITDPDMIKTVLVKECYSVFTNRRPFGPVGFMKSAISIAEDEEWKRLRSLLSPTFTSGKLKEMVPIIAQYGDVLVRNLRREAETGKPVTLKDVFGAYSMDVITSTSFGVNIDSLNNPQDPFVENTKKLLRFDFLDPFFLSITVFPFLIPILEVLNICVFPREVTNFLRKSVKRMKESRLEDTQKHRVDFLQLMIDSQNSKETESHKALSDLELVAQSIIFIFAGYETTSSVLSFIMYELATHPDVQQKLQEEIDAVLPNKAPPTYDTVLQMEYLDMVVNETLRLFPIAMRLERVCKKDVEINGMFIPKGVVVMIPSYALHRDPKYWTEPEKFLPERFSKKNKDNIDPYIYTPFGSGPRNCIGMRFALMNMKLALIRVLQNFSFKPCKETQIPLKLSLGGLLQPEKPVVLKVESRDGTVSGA", "experiment": "Inhibition of CYP3A4 in human liver microsomes using midazolam/testosterone as substrate in presence of NADPH by LC-MS/MS analysis", "assay_type": "ADME, Microsome"}, "Cytochrome P450 2C9": {"target": "Cytochrome P450 2C9 (Homo sapiens, UniProt P11712)", "sequence (P11712 whole entry)": "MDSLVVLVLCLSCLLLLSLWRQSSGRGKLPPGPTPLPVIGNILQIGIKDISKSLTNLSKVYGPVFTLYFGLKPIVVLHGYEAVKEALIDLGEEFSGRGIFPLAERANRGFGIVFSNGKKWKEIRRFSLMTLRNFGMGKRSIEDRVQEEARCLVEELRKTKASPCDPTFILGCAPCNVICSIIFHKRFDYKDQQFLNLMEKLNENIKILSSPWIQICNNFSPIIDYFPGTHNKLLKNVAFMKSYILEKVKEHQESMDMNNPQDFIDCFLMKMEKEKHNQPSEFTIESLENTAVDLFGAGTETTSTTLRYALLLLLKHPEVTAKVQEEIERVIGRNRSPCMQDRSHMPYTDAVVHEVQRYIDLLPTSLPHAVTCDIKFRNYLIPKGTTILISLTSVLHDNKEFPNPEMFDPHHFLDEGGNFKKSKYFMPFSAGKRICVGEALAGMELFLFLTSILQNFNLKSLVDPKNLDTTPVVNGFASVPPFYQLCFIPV", "experiment": "Inhibition of CYP2C9 in human liver microsomes using diclofenac as substrate in presence of NADPH by LC-MS/MS analysis", "assay_type": "ADME, Microsome"}, "Cytochrome P450 2C8": {"target": "T1, Cytochrome P450 2C8 (Homo sapiens, UniProt P10632)", "T1 sequence (P10632 whole entry)": "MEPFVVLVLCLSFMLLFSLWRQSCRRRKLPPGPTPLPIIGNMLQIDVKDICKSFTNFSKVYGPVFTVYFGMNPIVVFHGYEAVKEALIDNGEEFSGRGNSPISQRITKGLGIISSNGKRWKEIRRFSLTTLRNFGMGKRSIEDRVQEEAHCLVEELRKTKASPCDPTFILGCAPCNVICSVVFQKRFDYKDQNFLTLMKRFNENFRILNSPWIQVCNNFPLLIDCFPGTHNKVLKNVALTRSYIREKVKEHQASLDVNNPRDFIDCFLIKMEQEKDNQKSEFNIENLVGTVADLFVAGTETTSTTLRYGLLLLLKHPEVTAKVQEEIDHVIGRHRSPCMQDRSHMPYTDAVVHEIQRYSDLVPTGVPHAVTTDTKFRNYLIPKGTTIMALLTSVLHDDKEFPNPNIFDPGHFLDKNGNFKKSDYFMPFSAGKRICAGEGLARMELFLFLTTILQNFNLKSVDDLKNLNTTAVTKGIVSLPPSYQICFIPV", "experiment": "Inhibition of CYP2C8 in human liver microsomes using amodiaquine as substrate in presence of NADPH by LC-MS/MS analysis", "assay_type": "ADME, Microsome"}, "Cytochrome P450 2C19": {"target": "Cytochrome P450 2C19 (Homo sapiens, UniProt P33261)", "sequence (P33261 whole entry)": "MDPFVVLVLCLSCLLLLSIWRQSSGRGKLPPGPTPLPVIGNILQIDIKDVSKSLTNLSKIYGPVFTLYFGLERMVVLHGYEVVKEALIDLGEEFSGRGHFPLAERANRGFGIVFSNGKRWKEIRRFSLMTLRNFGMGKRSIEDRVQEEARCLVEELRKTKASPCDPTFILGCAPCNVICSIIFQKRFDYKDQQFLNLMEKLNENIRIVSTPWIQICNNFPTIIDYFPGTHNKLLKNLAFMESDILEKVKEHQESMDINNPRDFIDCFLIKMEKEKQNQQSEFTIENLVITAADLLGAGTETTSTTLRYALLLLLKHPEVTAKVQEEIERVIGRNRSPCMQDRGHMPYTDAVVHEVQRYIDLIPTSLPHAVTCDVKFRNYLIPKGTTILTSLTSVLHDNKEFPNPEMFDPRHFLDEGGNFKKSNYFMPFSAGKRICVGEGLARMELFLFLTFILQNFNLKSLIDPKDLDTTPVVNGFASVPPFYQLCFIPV", "experiment": "Inhibition of CYP2C19 in human liver microsomes using S-mephenytoin as substrate in presence of NADPH by LC-MS/MS analysis", "assay_type": "ADME, Microsome"}, "Cytochrome P450 2B6": {"target": "T2, Cytochrome P450 2B6 (Homo sapiens, UniProt P20813)", "T2 sequence (P20813 whole entry)": "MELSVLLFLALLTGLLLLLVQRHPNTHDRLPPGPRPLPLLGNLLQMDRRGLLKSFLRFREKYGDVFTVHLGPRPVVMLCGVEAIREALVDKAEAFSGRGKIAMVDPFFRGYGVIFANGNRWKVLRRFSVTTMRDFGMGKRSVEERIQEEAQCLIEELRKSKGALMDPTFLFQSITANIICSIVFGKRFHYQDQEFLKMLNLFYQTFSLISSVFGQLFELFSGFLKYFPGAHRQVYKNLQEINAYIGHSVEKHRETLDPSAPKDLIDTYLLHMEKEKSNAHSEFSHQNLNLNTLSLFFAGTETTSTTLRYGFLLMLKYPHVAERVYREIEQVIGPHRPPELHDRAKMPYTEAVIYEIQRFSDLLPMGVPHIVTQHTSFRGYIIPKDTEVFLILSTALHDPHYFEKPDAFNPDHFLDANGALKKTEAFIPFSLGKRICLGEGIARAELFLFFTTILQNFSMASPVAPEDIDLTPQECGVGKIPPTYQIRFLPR", "experiment": "Inhibition of CYP2B6 in human liver microsomes using bupropion as substrate in presence of NADPH by LC-MS/MS analysis", "assay_type": "ADME, Microsome"}, "Cytochrome P450 1A2": {"target": "T3, Cytochrome P450 1A2 (Homo sapiens, UniProt P05177)", "T3 sequence (P05177 whole entry)": "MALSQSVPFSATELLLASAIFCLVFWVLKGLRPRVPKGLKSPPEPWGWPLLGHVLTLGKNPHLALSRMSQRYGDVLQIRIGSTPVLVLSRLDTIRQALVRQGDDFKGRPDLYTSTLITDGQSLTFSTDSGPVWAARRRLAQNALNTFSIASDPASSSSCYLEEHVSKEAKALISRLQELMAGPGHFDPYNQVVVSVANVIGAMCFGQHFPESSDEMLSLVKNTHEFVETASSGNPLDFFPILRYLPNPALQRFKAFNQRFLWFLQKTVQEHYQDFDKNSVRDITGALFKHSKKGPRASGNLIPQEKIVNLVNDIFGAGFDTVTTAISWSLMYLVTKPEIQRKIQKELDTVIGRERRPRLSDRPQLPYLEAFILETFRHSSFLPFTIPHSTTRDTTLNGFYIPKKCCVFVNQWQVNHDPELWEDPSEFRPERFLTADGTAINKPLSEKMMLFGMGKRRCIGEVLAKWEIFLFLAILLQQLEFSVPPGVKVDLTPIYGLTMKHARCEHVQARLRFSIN", "experiment": "Inhibition of CYP1A2 in human liver microsomes using 7-ethoxyresorufin as substrate in presence of NADPH by LC-MS/MS analysis", "assay_type": "ADME, Microsome"}, "hERG (KCNH2)": {"target": "hERG (KCNH2) (Homo sapiens, UniProt Q12809)", "sequence (Q12809 whole entry)": "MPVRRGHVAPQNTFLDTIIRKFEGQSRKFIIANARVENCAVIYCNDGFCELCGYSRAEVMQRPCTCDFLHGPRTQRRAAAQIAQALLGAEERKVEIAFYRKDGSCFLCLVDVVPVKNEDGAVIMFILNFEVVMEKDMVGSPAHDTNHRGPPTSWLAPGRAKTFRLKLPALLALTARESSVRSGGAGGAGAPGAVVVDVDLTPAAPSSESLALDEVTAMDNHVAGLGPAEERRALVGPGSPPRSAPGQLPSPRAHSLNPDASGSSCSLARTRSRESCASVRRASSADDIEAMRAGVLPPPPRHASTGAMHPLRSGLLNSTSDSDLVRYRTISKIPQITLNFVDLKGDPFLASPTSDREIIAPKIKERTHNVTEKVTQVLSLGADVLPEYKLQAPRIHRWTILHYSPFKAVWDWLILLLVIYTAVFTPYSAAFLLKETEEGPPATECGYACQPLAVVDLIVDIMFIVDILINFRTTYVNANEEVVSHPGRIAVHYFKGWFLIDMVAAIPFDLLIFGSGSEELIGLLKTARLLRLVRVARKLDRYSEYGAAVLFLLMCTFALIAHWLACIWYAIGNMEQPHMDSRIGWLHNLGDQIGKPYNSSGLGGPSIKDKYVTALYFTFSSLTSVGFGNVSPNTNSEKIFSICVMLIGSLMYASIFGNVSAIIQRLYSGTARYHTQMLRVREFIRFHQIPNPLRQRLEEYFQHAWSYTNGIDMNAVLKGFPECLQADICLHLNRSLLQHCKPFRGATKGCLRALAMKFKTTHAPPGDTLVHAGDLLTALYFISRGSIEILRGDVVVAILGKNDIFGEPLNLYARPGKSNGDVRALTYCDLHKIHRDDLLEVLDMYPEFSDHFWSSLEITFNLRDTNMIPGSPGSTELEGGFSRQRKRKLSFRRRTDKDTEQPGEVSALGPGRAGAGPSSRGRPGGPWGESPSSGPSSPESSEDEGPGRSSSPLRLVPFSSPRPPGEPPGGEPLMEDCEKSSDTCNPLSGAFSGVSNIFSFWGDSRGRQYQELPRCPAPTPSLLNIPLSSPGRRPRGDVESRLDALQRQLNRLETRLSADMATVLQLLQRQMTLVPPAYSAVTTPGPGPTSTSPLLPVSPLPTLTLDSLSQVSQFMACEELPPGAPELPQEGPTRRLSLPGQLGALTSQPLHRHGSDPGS", "experiment": "Inhibition of human ERG at 10 uM by patch clamp method relative to control", "assay_type": "toxicity"}}, "data": [{"smiles": "CC(C)(O)Cn1cc(-c2nc(NC3CCN(S(=O)(=O)C4CC4)CC3)ncc2C(F)(F)F)cn1", "values": [{"measurement": "solubility", "setting": "[1]", "result": "> 400", "unit": "µg/mL"}, {"measurement": "CLint scaled at 1 µM", "setting": "[2]", "result": 8.33, "unit": "mL/min/kg"}, {"measurement": "Papp A→B at 2 h, 50 µM", "setting": "[3]", "result": 13, "unit": "×10⁻⁶ cm/s"}, {"measurement": "fraction unbound at 2 h", "setting": "[4]", "result": 0.12}, {"measurement": "AUC at 24 h", "setting": "[5]", "result": 0.751, "unit": "µM·h"}, {"measurement": "Cmax", "setting": "[6]", "result": 757, "unit": "nM"}, {"measurement": "bioavailability", "setting": "[7]", "result": 51, "unit": "%"}, {"measurement": "QH", "setting": "[8]", "result": 130, "unit": "%"}, {"measurement": "half-life", "setting": "[9]", "result": 2, "unit": "h"}, {"measurement": "Vd", "setting": "[10]", "result": 1.8, "unit": "L/kg"}, {"measurement": "AUC at 24 h", "setting": "[11]", "result": 5.65, "unit": "µM·h"}, {"measurement": "Cmax", "setting": "[12]", "result": 962, "unit": "nM"}, {"measurement": "bioavailability", "setting": "[13]", "result": 21, "unit": "%"}, {"measurement": "QH", "setting": "[14]", "result": 9, "unit": "%"}, {"measurement": "half-life", "setting": "[15]", "result": 2.6, "unit": "h"}, {"measurement": "Vd", "setting": "[16]", "result": 0.4, "unit": "L/kg"}, {"measurement": "inhibition in vivo at 30 mg/kg", "setting": "[17]", "result": "~50", "unit": "%"}, {"measurement": "Cp", "setting": "[18]", "result": "Bld"}, {"measurement": "inhibition in vivo at 30 mg/kg", "setting": "OVCAR-3", "result": 38, "unit": "%"}, {"measurement": "Activity", "setting": "[19]", "result": "Non-Toxic"}, {"measurement": "Activity", "setting": "[20]", "result": "Non-Toxic"}, {"measurement": "Activity", "setting": "[21]", "result": "Non-Toxic"}, {"measurement": "IC50", "setting": "Cytochrome P450 2D6", "result": "> 25", "unit": "µM"}, {"measurement": "IC50", "setting": "Cytochrome P450 3A4", "result": "> 25", "unit": "µM"}, {"measurement": "IC50", "setting": "Cytochrome P450 2C9", "result": "> 25", "unit": "µM"}, {"measurement": "IC50", "setting": "Cytochrome P450 2C8", "result": "> 25", "unit": "µM"}, {"measurement": "IC50", "setting": "Cytochrome P450 2C19", "result": "> 25", "unit": "µM"}, {"measurement": "IC50", "setting": "Cytochrome P450 2B6", "result": "> 25", "unit": "µM"}, {"measurement": "IC50", "setting": "Cytochrome P450 1A2", "result": "> 25", "unit": "µM"}, {"measurement": "inhibition at 10 µM", "setting": "hERG (KCNH2)", "result": 6.6, "unit": "%"}]}]}
